Results published in publication PMC8466854, “Molecular Determinant of DIDS Analogs Targeting RAD51 Activity” (Molecules, 2021).
Like-named read-outs stand apart in the source and are kept apart here.

Assays:
RAD51 [1] = molecular target: T1, RAD51 (Homo sapiens, UniProt Q06609); test: D-loop assay (RAD51-mediated D-loop formation); assay type: biochemical; details: for Effect on D-loop structure formation: increasing concentration until 100 µM
T1 construct: His; made in house; host or cells: Escherichia coli BL21-DE3
T1 sequence (Q06609 1-339): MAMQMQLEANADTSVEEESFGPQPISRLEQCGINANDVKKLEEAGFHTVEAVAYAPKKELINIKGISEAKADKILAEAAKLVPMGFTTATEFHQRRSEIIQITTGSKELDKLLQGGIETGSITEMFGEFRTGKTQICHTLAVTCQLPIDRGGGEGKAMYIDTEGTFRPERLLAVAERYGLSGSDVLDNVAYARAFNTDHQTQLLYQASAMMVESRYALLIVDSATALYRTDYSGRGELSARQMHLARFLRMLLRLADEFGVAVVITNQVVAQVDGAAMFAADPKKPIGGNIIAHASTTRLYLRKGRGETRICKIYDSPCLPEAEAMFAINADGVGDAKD
Procedure: Firstly, we incubated RAD51 with increasing concentrations of DIDS (from 1 to 100 µM) and then we calculated the percent of D-loop by quantifying the shifted band in comparison to the control condition in absence of DIDS (Figure 2A).
(A) D-loop structures in presence of increasing concentration of DIDS analogs (5, 25, 50, 145, and 100 µM) were separated and visualized on agarose gel. Last lane corresponds to the control condition without DIDS-derived molecule. (B) After quantification of signal intensity of shifted band corresponding to D-loop structure, the percent of D-loop is calculated in comparison to the condition in absence of drug and presented in relation to the increasing concentration (from 1 to 100 µM) of each small molecule. Three independent experiments were performed and each error bar represents s.d. statistical analysis.
An IRD700 100 bp ssDNA probe (Integrated DNA Technologies, Leuven, Belgium) is used to assess D-loop formation activity of RAD51. Reactional buffer is prepared (25 mM Tris-HCl pH7.5; 1 mM DTT; 1 mM ATP; 1 mM CaCl2; qsp water) in the presence of 1 µM ssDNA probe. RAD51 is then added to the reaction, and the mixture is incubated for 5 min at 37 °C. Plasmid DNA (3 mM) is next added to the reaction for a final volume of 10 µL and incubated at 37 °C for 15 min. Reaction is deproteinized by adding stop buffer (20 mM Tris-HCl pH7.5; 5 mg/mL proteinase K; qsp water) and the mixture is incubated for 20 min at 37 °C.

RAD51 [2] = molecular target: T1, RAD51; test: RAD51 self-association by BS3 chemical cross-linking; assay type: biochemical; details: 50 µM of drug; for Effect on oligomer/monomer migration profile (self-association of RAD51): RAD51 8.5 µM, BS3 cross-link, SDS-PAGE; for Decrease of polymerization rate (oligomer/monomer form intensity ratio): three independent experiments
Description: The mechanism of action of these DIDS analogs molecules remains unclear, but they probably act on the protein–protein interaction site of RAD51. In order to assess their possible effect on the subunit–subunit RAD51 association, we investigated the oligomerization level of RAD51 in presence of these small molecules. By using BS3 cross-linker, we fixed the quaternary structure of RAD51 in absence or in presence of the five stilbene molecules. Oligomer and monomer forms were separated on SDS-PAGE and stained with Coomassie blue (Figure 4A). Oligomer forms include dimer, trimer, and high polymer while monomer form is well separated at 37 kDa.
Figure 4 Self-association of RAD51 is inhibited in the presence of DIDS, SITS, and DAZDS. (A) The polymerization of RAD51 was estimated by cross-link approach (see Material and Method section). (B) Oligomer and monomer forms ratio is presented as a histogram graph. Three independent experiments were performed and statistical analysis was performed using paired Student’s t-test. Statistical significance was assumed at ** p < 0.01, *** p < 0.001. Each error bar represents s.d. statistical analysis.
RAD51 at 8.5 µM was incubated with the indicated concentrations of chemical compounds for 5 min at room temperature in a buffer containing 20 mM sodium phosphate, 50 mM azidol, 1 mM MgCl2, and 1 mM ATP. The protein was cross-linked with 4.2 µM of BS3 (bis(sulfosuccinimidyl)suberate, Sigma) at room temperature for 30 min. Then the reaction was stopped by addition of Tris-HCl pH 8.1 at final concentration 33 mM for 15 min at room temperature. The sample was separated by SDS-PAGE at 10% and analyzed by Western blotting. Anti-RAD51 rabbit antibody was used as primary antibody (Sigma-Aldrich Cat# SAB2101936, RRID:AB_10607384), then secondary anti-rabbit antibody conjugated to alexafluor 680 (GAR 700: Molecular Probes Cat# A-21076, RRID:AB_2535736) was used for the detection. The quantification of monomer and cross-linked oligomers was performed by an Odyssey infrared imaging system scanner (LI-COR, Biosciences, Lincoln, NE, USA).

RAD51 nucleofilament = molecular target: T2, RAD51 nucleofilament (Homo sapiens, UniProt Q06609); test: DNA binding assay by bio-layer interferometry (BLItz), drug added after RAD51 is bound to ssDNA: nucleofilament dissociation; details: drug added at 40 µM after association of RAD51 with ssDNA
T2 construct: His; made in house; host or cells: Escherichia coli BL21-DE3
T2 sequence (Q06609 1-339): T1 sequence (Q06609 1-339)
Procedure: (§1) Figure 3 DIDS derivatives modulate the RAD51 nucleofilament formation. The association and dissociation between RAD51 and ssDNA were evaluated by Blitz interferometry. RAD51 (2 µM) was pre-incubated in phosphate buffer in absence or presence of each molecule at different concentrations before the measurement. The association phase followed until 50 s while the dissociation phase was monitored until 80 or 90 s, as indicated in graphs. (A) Effect of DIDS family on the ssDNA-RAD51 association was evaluated at 40 µM concentration of each molecule including DIDS, DADS, DAZDS, DNDS, and SITS. (B) DIDS, (C) DAZDS, and (D) SITS were incubated with RAD51 at increasing concentrations of 2, 10, and 20 µM for 5 min before the measurement by BLItz approach. (E) The percent of nucleofilament formation in presence of stilbene molecule was calculated in comparison to the condition in absence of drug after 50 s. This percentage was presented in function to the increasing concentration (from 2 to 20 µM) of each small molecule. (F) RAD51 associates with ssDNA until 50 s, and then each molecule is added at 40 µM as indicated by the narrow in the graph.
To this purpose, we incubated RAD51 with ssDNA, then we added the drug, and we measured the dissociation kinetic of RAD51 nucleofilament (Figure 3F).
(§2) PolydT DNA (1 µM) is biotinylated to allow its binding to the streptavidin-coated biosensor. Two methods of evaluation are used: the former by pre-incubating RAD51 with the drug to test and the latter by adding the drug after RAD51 is bound to DNA. In the first case, 2 µM RAD51 is incubated with the drug for […] on ice, then RAD51-ssDNA binding measurement is performed (baseline phase: 10 s; association phase: 40 s; dissociation phase: 30 s). In the second case, RAD51-ssDNA binding is analyzed, and after the association phase, the drug is added to the reaction and dissociation effect is measured (baseline phase: 10 s; association phase: 50 s; dissociation phase: 40 s). For the two cases, reaction buffer is composed of Phosphate Buffer saline (PBS) and 1 mM ATP. The tip is regenerated with 50 mM NaOH during 40 s before reuse. Measures are realized on a BLItz device from ForteBio.

[3] = tested on: fibroblast and prostatic cancer cells; test: Cytotoxicity (data not shown); assay type: cell-based
RAD51 [4] = molecular target: T1, RAD51; test: DNA binding assay by bio-layer interferometry (BLItz), RAD51 pre-incubated with drug: ssDNA-RAD51 association / nucleofilament formation; details: for inhibition at 20 µM: read-out: Inhibition of the association of RAD51 with ssDNA (reduction of nucleofilament formation); for Effect on ssDNA-RAD51 association: RAD51 2 µM pre-incubated with drug, 40 µM of each molecule (Figure 3A)
Procedure: We have evaluated the steps preceding D-loop formation, namely the formation of the nucleofilament of RAD51. We investigated the effect of DIDS and its derivatives on ssDNA binding and the nucleofilament formation functions of RAD51 by bio-layer interferometry. Two approaches were undertaken: (i) to determine the impact of drugs on RAD51-ssDNA binding and (ii) to evaluate the ability of drugs to dissociate RAD51 nucleofilament. Concerning the first approach, we pre-incubated RAD51 with the drug of interest for 5 min before measuring ssDNA-RAD51 binding efficiency. […] At a concentration of 20 μM, DAZDS inhibits the association of RAD51 with ssDNA by more than 80% (Figure 3C,E), while at the same concentration the SITS slightly reduces the formation of the nucleofilament by about 10–20% (Figure 3D,E).
as §1, §2

RAD51 [5] = tested on: RAD51; set-up: method as in PMID 19336413; details: absence or presence of ATP has no influence ref 20; cited from earlier work
[6] = set-up: method as in PMID 18642799; details: aqueous solution ref 30; cited from earlier work
RAD51 foci formation = tested on: RAD51 foci formation; set-up: method as in earlier work; details: leukemia cells / B cells ref 21, Muramatsu et al.; cited from earlier work
RAD51 (Homo sapiens) = test: BLI; details: 1 mM ATP, RAD51 pre-incubated with DAZDS 20 uM, BLI (BLItz): PBS, 2 uM RAD51, biotinylated polydT 1 uM on streptavidin sensor, drug pre-incubation 10 min on ice (Methods; 5 min in Results), assay …
[7] = D-loop formation by RAD51, 1 to 100 µM of each molecule, three independent experiments, read-out: IC50 determination from D-loop data

Compound	IC50 (RAD51 [1]; [7])	Effect on D-loop structure formation (RAD51 [1])	Effect on oligomer/monomer migration profile (self-association of RAD51) (RAD51 [2])	Decrease of polymerization rate (oligomer/monomer form intensity ratio) (RAD51 [2])	Effect on nucleofilament stability (dissociation of RAD51 nucleofilament) (RAD51 nucleofilament)	Cytotoxicity ([3]; cells not given, in contrast to DIDS)	inhibition at 20 µM (RAD51 [4]; 20 µM of drug, RAD51 2 µM pre-incubated, after 50 s)	Effect on ssDNA-RAD51 association (RAD51 [4])	Cytotoxicity ([3]; fibroblast and prostatic cancer cells, data not shown)	RAD51 binding to ssDNA or dsDNA in the presence of the drug (RAD51 [5])	Stability in aqueous solution [6]	RAD51 foci formation (RAD51 foci formation)	RAD51 nucleofilament formation (RAD51 [4]; from 10 µM of drug, RAD51 2 µM pre-incubated)	IC50 (RAD51 [1])	IC50 (RAD51 [1]; read-out: IC50 determination from D-loop data, D-loop formation by RAD51, 1 to 100 µM of each molecule, three independent experiments)	inhibition at 20 µM (RAD51 [4])	binding signal (% inhibition of association) (RAD51 (Homo sapiens))
Nc1ccc(C=Cc2ccc(N)cc2S(=O)(=O)O)c(S(=O)(=O)O)c1 [DADS, 4,4′-diaminostilbene-2,2′-disulfonic acid]	> 100 µM	no effect	no effect on the self-association of RAD51	no effect	not able to dissociate the nucleofilament												
[N-]=[N+]=Nc1ccc(C=Cc2ccc(N=[N+]=[N-])cc2S(=O)(=O)O)c(S(=O)(=O)O)c1 [DAZDS, 4,4′-diazidostilbene-2,2′-disulfonic acid]	41.3 µM	significant inhibitory effect	decrease of oligomer forms in favor of RAD51 monomer	about 40%	totally dissociated the structure	weak cytotoxicity	> 80%	inhibitory effect									
O=S(=O)(O)c1cc(N=C=S)ccc1C=Cc1ccc(N=C=S)cc1S(=O)(=O)O [DIDS, 4,4′-diisothiocyanatostilbene-2,2′-disulfonic acid]	0.9 µM	inhibits D-loop intermediate structure in a dose-dependent manner	decrease of oligomer forms in favor of RAD51 monomer	about 40%	totally dissociated the structure			inhibitory effect	relatively cytotoxic	unable to bind ssDNA or dsDNA	unstable in aqueous solution	inhibit RAD51 foci formation	totally inhibited				
O=[N+]([O-])c1ccc(C=Cc2ccc([N+](=O)[O-])cc2S(=O)(=O)O)c(S(=O)(=O)O)c1 [DNDS, 4,4′-dinitrostilbene-2,2′-disulfonic acid]		no effect	no effect on the self-association of RAD51	no effect	not able to dissociate the nucleofilament									> 100 µM	≤ 100 µM		
CC(=O)Nc1ccc(C=Cc2ccc(N=C=S)cc2S(=O)(=O)O)c(S(=O)(=O)O)c1 [SITS, 4-acetamido-4′-isothiocyanatostilbene-2,2′-disulfonic acid]		significant inhibitory effect	decrease of oligomer forms in favor of RAD51 monomer	about 40%				inhibitory effect						29 µM		10 to 20%	
polydT																	> 80
